Source: patent publication US20250025451A1, “TREATMENT OF CANCER WITH KDM4 INHIBITORS” (Celgene Corporation, priority 2021, published 2025)
Values joined by “and” are separate entries in the source; they are usually repeats but may differ in a detail not shown here. Equal entries are not always repeated. Where two headings read alike, the source gives them in different places.

Key:
[1] = system: SU60 patient-derived colon cancer organoid model; assay: organoid colony formation and viability assay, SU60; format: cell-based, human
Description: (§1) The IC50 values for Compound 1 inhibition of colony formation and viability were determined for the patient-derived colon cancer organoid models: SU60, T002C, SU62, SU34, SU103, T03SC, and SU106, patient-derived pancreatic cancer organoid models PA016SF, PA0143F, T016P, and T028P, and a patient-derived breast cancer organoid model FS5S3.
(§2) Colony formation and viability assays were performed in multiwell plates seeded with organoids using an in vitro culture system composed of a Matrigel layer, media containing a defined set of growth factors, and co-culture with Wnt3 A-secreting mouse embryonic fibroblasts. Assays were initiated by adding either DMSO as a negative control, or an inhibitor panobinostatat 100×IC50 concentration as a positive control, or serially diluted Compound 1. The cultures were incubated for 168 or 144 hours after which the number of viable organoids in each test well was assessed respectively using one of two detection methods: CTG or staining with calcein-AM followed by imaging and colony counting. Colony count or viability of cells treated with compound 1 was expressed as a percent of the negative control. Aggregated Percent of Control values were plotted against the corresponding Compound 1 concentration and the absolute IC50 value was determined from a non-linear regression curve as the concentration where inhibition was 50% of the control.
The colony formation inhibition assays were performed in multiwell plates seeded with SU60 organoids. The cultures were incubated for 168 hours after which the number of colonies was assessed by staining with calcein AM followed by imaging and colony counting. Colony counts were expressed as a percent of the negative control and aggregated Percent of Control values were plotted against the corresponding Compound 1 concentration. A curve was fitted using non-linear regression.

[2] = system: SU103 patient-derived colon cancer organoid model; assay: organoid colony formation assay, SU103; format: cell-based, human
Description: as §1, §2

[3] = system: T035C patient-derived colon cancer organoid model; assay: organoid colony formation assay, T035C; format: cell-based, human
Description: as §1, §2

[4] = system: COH70 patient-derived triple negative breast cancer xenograft; assay: in vivo efficacy, COH70 patient-derived triple negative breast cancer xenograft model; conditions: COH70 TNBC PDX; for % TGI: Day 36; for Median Tumor Volumes Diff.: Day 36 minus Day 1
Description: The therapeutic in vivo efficacy of Compound 1 was evaluated in SU60 colorectal cancer, KYSE-150 esophageal cancer, COH70 triple-negative breast cancer, GXA-3036 gastric adenocarcinoma and OCI-LY19 Diffuse Large B-Cell Non-Hodgkin's Lymphoma xenograft models. In all studies, efficacy was determined based on percent tumor growth inhibition (TGI), differences in mean tumor growth, and statistical assessment of differences in net tumor volume distributions on the day of TGI analysis between control and treated animals. Tolerability was assessed based on differences in mean body weights between control and treated animals over the course of the study.
The in vivo therapeutic efficacy and tolerability of Compound 1, administered orally as the free acid form in a PBS vehicle plus two equivalents of NaOH (final pH 10), was evaluated in a dose range study using the COH70 TNBC PDX model established in female NSG mice. Each mouse was inoculated subcutaneously in the abdomen with 2×10^6 COH70 tumor cells (0.2 ml) suspended in Matrigel. When the average tumor size reached ˜107 mm3, test animals were randomized into 5 groups consisting of 9 mice per group and treatments were initiated. Control mice received PBS (pH 10) vehicle PO QDx36. Treated mice received Compound 1 (dissolved in PBS+2 equivalents of NaOH, final pH 10) PO at 50, 40, 25, or 12.5 mg/kg QDx36. TGI was determined on Day 36 as (1−Difftreated/Diffcontrol)×100. Individual tumors were measured twice weekly in two dimensions using a caliper, and the tumor volumes (TV) in mm3 were calculated using the formula: TV=0.5 (l×w×h), where l, w, and h are the tumor length, width, and height in mm, respectively. Mean tumor volumes±SEM were calculated and plotted versus days of dosing (left panel). Body weights were measured twice weekly. Body weights±SEM were calculated and plotted versus days of dosing (right panel).

[5] = system: tumor initiating cells of SU60 xenograft tumors; assay: functional in vivo tumorigenicity assay (limiting dilution assay); design: species or system mice
Description: The ability of Compound 1 to affect tumorigenic potential was analyzed by flow cytometry analysis of the tumorigenic cell population and functional in vivo tumorigenicity assay (limiting dilution assay).
To assess the effect of Compound 1 on tumorigenic cell population, Compound 1 was used to treat SU60 xenograft tumors. NSG female mice engrafted with SU60 cells (7 mice each group) were administered Compound 1 at 40 mg/kg PO QD×21. The day after the last dose, three tumors nearest to the mean size from each group were dissociated and the single cells were used to perform: 1) flow cytometry analysis of the tumorigenic cell population and 2) functional in vivo tumorigenicity assay (limiting dilution assay). Flow Cytometry Analysis of Tumorigenic Cell Population after Compound 1 Treatment
To study the effect of Compound 1 on tumor initiating cell (TIC) frequency in CRC tumors, we evaluated the tumorigenic potential of SU60 xenograft cells posttreatment with Compound 1 or vehicle. At the end of dosing, SU60 dissociated cells from three animals per group nearest to the mean size were injected in a limiting dilution manner into recipient NSG mice and tumor volumes were measured. The number of cells required for tumor formation was reduced in the Compound 1-treated group. The reduction in TIC frequency was 4.4-fold (FIG. 17 and Table 10). Differentiation of progenitor cells is a potential explanation for this reduction.

[6] = system: colorectal cancer organoid PDX models; assay: culture-based viability inhibition assay, colorectal cancer organoid PDX models; format: cell-based; conditions: for Sensitive to Compound 1 (models sensitive/tested): sensitive = IC50<1 μM
Description: A panel of 13 colorectal cancer PDX models and 6 colorectal cancer organoid PDX models were tested for their sensitivity to Compound 1 in culture-based viability inhibition assays. The MSI-H status of the studied colorectal cancer cell lines and their respective mutations of the MMR path genes are shown in FIG. 19.

KDM4 = assay: biochemical activities (KDM4 inhibition); conditions: KDM4 isoforms, FIG. 1
[7] = SU60 cells from tumors treated 40 mg/kg QD, injected into recipient NSG mice, 50 cells
[8] = SU60 cells from tumors treated 40 mg/kg QD, injected into recipient NSG mice, 500 cells
[9] = SU60 cells from tumors treated 40 mg/kg QD, injected into recipient NSG mice, 1000 cells
[10] = MSS (Organoid) colorectal cancer models

SMILES: CC(C)c1ccc(N(C)c2ccc3c(c2)OCC[C@H]3CNc2cnccc2C(=O)O)cc1 [Compound 1, 3-({[(4R)-7-{methyl[4-(propan-2-yl)phenyl]amino}-3,4-dihydro-2H-1-benzopyran-4-yl]methyl}amino)pyridine-4-carboxylic acid]
- IC50 ([1]; Homo sapiens, SU60 colorectal carcinoma model, colony formation and viability assays): < 150 nM
- IC50 ([1]; SU60 human colorectal carcinoma organoid, 144 hrs, Colony Counts): 64 nM
- IC50 ([1]; SU60 human colorectal carcinoma organoid, 168 hrs, CTG): 23 nM
- IC50 ([2]; Homo sapiens, SU103 colorectal carcinoma model): > 10000 nM
- IC50 ([2]; SU103 human colorectal carcinoma organoid, 144 hrs, Colony Counts): > 10000 nM
- IC50 ([3]; Homo sapiens, T035C colorectal carcinoma model): > 10000 nM
- IC50 ([3]; T035C human colorectal carcinoma organoid, 144 hrs, Colony Counts): > 10000 nM
- tolerability (dose-dependent mean body weight changes) ([4]; female NSG mice, 12.5-50 mg/kg PO QD x36): well-tolerated
- mean body weight loss ([4]; female NSG mice, PO QD x36, over the course of the study): 6.5%
- Median Tumor Volumes Day 36 ([4]; female NSG mice, free acid 12.5 mg/kg PO QD x36): 685 mm^3
- Median Tumor Volumes Day 36 ([4]; female NSG mice, free acid 25 mg/kg PO QD x36): 524 mm^3
- Median Tumor Volumes Day 36 ([4]; female NSG mice, free acid 40 mg/kg PO QD x36): 282 mm^3
- Median Tumor Volumes Day 36 ([4]; female NSG mice, free acid 50 mg/kg PO QD x36): 295 mm^3
- % TGI ([4]; 12.5 mg/kg PO QD x36): 57%
- Median Tumor Volumes Diff. ([4]; 12.5 mg/kg PO QD x36): 581 mm^3
- % TGI ([4]; 25 mg/kg PO QD x36): 68%
- Median Tumor Volumes Diff. ([4]; 25 mg/kg PO QD x36): 424 mm^3
- % TGI ([4]; 40 mg/kg PO QD x36): 86%
- Median Tumor Volumes Diff. ([4]; 40 mg/kg PO QD x36): 184 mm^3
- % TGI ([4]; 50 mg/kg PO QD x36): 86%
- Median Tumor Volumes Diff. ([4]; 50 mg/kg PO QD x36): 191 mm^3
- Mean Tumor Volume (50 cells) [5, 7]: 209 mm^3
- Tumor Take Rate (50 cells) [5, 7]: 3/10
- Mean Tumor volume (500 cells) [5, 8]: 589 mm^3
- Tumor Take Rate (500 cells) [5, 8]: 5/10
- Mean Tumor Volume (1000 cells) [5, 9]: 830 mm^3
- Tumor Take Rate (1000 cells) [5, 9]: 7/10
- reduction in TIC frequency ([5]; SU60 xenograft, 40 mg/kg PO QD x21, vs vehicle): 4.4 fold
- IC50 ([6]; MSI (Organoid) colorectal cancer models, read-out: IC50 (range over sensitive models)): 22 to 149 nM
- Sensitive to Compound 1 (models sensitive/tested) ([6]; MSI (Organoid) colorectal cancer models): 3 out of 3 and 3/3
- Sensitive to Compound 1 (percent of models) [6, 10]: (0%)
- IC50 ([6]; MSS (Organoid) colorectal cancer models, read-out: IC50): > 10000 nM
- Sensitive to Compound 1 (models sensitive/tested) [6, 10]: 0 out of 3 and 0/3
- biochemical activities (KDM4): potent PAN KDM4 inhibitor
